Measured values taken from ChEMBL document CHEMBL1147566, “Novel halogenated nitrobenzylthioinosine analogs as es nucleoside transporter inhibitors” (Bioorg Med Chem Lett, 2004).

Biological target: T1, Equilibrative nucleoside transporter 1 (Homo sapiens, UniProt Q99808)
T1 sequence (Q99808 whole entry): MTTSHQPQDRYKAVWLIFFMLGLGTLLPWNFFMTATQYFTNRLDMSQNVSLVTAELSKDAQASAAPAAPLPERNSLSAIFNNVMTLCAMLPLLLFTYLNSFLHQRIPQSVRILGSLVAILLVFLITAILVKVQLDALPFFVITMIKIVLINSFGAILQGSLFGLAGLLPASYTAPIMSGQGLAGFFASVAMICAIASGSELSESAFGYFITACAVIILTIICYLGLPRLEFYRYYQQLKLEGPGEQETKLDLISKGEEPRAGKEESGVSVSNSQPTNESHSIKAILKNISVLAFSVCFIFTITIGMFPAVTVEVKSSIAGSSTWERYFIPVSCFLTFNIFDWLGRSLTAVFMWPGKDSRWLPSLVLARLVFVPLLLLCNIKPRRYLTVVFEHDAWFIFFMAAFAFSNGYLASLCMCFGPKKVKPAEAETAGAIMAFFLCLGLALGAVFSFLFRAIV
Experiment: Displacement of 5-(SAENTA)-X8-fluorescein from K562 cell nucleoside transporter
Type: cell-based

SMILES	Ki
OC[C@H]1O[C@@H](n2cnc3c(SCc4ccccc4Br)ncnc32)[C@H](O)[C@@H]1O	0.134 µM
OC[C@H]1O[C@@H](n2cnc3c(SCc4ccc(Cl)cc4)ncnc32)[C@H](O)[C@@H]1O	0.0142 µM
OC[C@H]1O[C@@H](n2cnc3c(SCc4ccccc4I)ncnc32)[C@H](O)[C@@H]1O	0.0161 µM
OC[C@H]1O[C@@H](n2cnc3c(SCc4cccc(Br)c4)ncnc32)[C@H](O)[C@@H]1O	0.0205 µM
OC[C@H]1O[C@@H](n2cnc3c(SCc4ccc(I)cc4)ncnc32)[C@H](O)[C@@H]1O	0.00388 µM
OC[C@H]1O[C@@H](n2cnc3c(SCc4ccccc4Cl)ncnc32)[C@H](O)[C@@H]1O	0.0995 µM
OC[C@H]1O[C@@H](n2cnc3c(SCc4ccc(F)cc4)ncnc32)[C@H](O)[C@@H]1O	0.00902 µM

More lines, in order of falling Ki, values ahead:

Ki	SMILES
0.0199 µM	OC[C@H]1O[C@@H](n2cnc3c(SCc4ccccc4F)ncnc32)[C@H](O)[C@@H]1O
0.016 µM	OC[C@H]1O[C@@H](n2cnc3c(SCc4cccc(Cl)c4)ncnc32)[C@H](O)[C@@H]1O
0.0138 µM	OC[C@H]1O[C@@H](n2cnc3c(SCc4cccc(I)c4)ncnc32)[C@H](O)[C@@H]1O
0.0112 µM	OC[C@H]1O[C@@H](n2cnc3c(SCc4cccc(F)c4)ncnc32)[C@H](O)[C@@H]1O
0.00998 µM	OC[C@H]1O[C@@H](n2cnc3c(SCc4ccc(Br)cc4)ncnc32)[C@H](O)[C@@H]1O
